Source: patent US20240294523A1, “HETEROCYCLIC LACTAM COMPOUND, AND PREPARATION METHOD THEREFOR AND PHARMACEUTICAL USE THEREOF” (Genfleet Therapeutics (Shanghai) Inc., priority 2021, published 2024)

Experiments:
[1] = test system: L929 cells; test: Inhibition of TNF-α-induced programmed necrosis of L929 cells (CellTiter-Glo); format: cell-based; conditions: 30 ng/ml mouse TNF-α + 15 μM Z-VAD, 6 hours
Protocol: The L929 cell line used in the following test examples was from ATCC, number: CCL-1, batch number: 70001022, culture medium: MEM+10% FBS+1% PS.
(§1) The reagents used, suppliers and product numbers of the reagents were as follows: RPMI-1640, Gibco, 11875-093; FBS, Gibco, 10099-141; Trypsin-EDTA, Gibco, 25200-072; PS, Gibco, 15140-122; CellTiter Glo , Progema, G7573; DMSO, VWR AMRESCO, 0231-500ML; TNF-α protein (human, recombinant), Peprotech, 300-01A; Q-VD-Oph, MCE, HY-12305; V-shaped bottom plate, Corning, 3894; 384-well low-flange white flat-bottom microplate, Corning, 3570; RIPK1, Eurofins, 16-022; MOPS, BDH, 441644J; EDTA, Sigma, E5134; Myelin basic protein, Sigma, M1891-25.00 MG; Magnesium acetate, Merck, DU008026; ATP (non-radioactive label), Sigma, A-7699; ATP (radioactive label), Hartmann Analytic, DU008054; Phosphoric acid, Metlab, DU003000; Z-VAD: Shanghai Yuang Chemical Industry, YA02401.
The compounds to be tested were dissolved in DMSO to prepare a 10 mM stock solution, and diluted 3.16 times with DMSO into a series of concentration gradients, and then dilute 100 times to prepare a working solution. 10000 L929 cells/well were seeded in a 384-well white plate. Compounds of corresponding concentrations were added to each well and mixed evenly with the cells. At the same time, 30 ng/ml mouse TNF-α and 15 μM Z-VAD were added to induce programmed necrosis of the cells, the final concentration of DMSO was 0.2%. The cells were placed at 37° C., 5% CO2 incubator for 6 hours. CellTiter-Glo reagent was used for detection, and the chemiluminescence reading was detected using a microplate reader after sufficient lysis reaction. The test results were calculated using the formula SR (%)=(RLU compound−RLU blank)/(RLU high control−RLU blank)×100%. The survival rate and the final concentration of the corresponding compound were drawn into a curve and fitted using four parameters. Inhibitory IC50 on TNF-α-induced cell necrosis of the compounds were calculated.

[2] = molecular target: RIPK1 (Homo sapiens (Human), UniProt Q13546); test: Inhibitory activity against RIPK1 enzyme (33P-ATP, MBP substrate); format: biochemical; conditions: 36 nM RIPK1, 0.33 mg/ml MBP, 155 μM ATP, 2 hours, room temperature
RIPK1, sequence (Q13546 whole entry): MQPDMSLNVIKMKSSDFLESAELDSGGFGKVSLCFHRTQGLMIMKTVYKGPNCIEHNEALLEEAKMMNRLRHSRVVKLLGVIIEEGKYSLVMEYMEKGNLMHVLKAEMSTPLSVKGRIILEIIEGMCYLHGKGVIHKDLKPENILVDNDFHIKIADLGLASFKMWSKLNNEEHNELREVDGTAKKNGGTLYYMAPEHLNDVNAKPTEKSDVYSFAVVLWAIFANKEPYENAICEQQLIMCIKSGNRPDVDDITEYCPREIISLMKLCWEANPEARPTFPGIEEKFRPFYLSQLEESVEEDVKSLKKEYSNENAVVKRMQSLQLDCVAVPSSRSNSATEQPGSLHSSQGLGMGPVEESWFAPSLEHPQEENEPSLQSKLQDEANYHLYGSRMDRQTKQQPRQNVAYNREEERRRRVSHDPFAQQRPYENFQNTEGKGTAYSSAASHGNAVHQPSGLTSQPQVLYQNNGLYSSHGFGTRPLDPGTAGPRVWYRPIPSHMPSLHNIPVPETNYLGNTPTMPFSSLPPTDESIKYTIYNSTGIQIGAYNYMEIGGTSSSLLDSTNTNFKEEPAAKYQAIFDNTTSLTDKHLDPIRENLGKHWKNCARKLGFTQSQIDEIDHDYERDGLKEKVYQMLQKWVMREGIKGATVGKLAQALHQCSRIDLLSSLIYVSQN
Protocol: as §1
The compound to be tested was dissolved in DMSO to prepare a 10 mM stock solution, diluted 3.16 times with DMSO into a series of concentration gradients, and then MOPS pH 7.0 buffer solution was used to dilute 50 times to prepare a working solution, and mixed well with 36 nM RIPK1 (final concentration), 0.33 mg/ml substrate MBP. Afterwards, 10 mM magnesium ions and 155 μM phosphorus 33 isotope-labeled ATP were added to react, The final concentration of DMSO was 2%. After the reaction was proceeded at room temperature for 2 hours, phosphoric acid was added to terminate. The final reaction system was processed and detected using a liquid scintillation counter. After the test results are subtracted from the blank control and compared with the reading value of the control group to convert to the activity percentage, which was plotted as a curve with the final concentration of the corresponding compound, and four-parameter fitting was used to obtain the IC50 of the compound that inhibits RIPK1 enzyme activity.

[3] = test system: U937 cells; test: Inhibition of TNF-α-induced programmed necrosis of U937 cells (CellTiter-Glo); format: cell-based; conditions: U-937, human TNF-α + Q-VD-Oph, 48 hours
Protocol: The U937 cell line used in the following test examples was from ATCC, number: CRL-1593.2, batch number: 63479999, culture medium: RPMI-1640+10% FBS.
as §1
The compounds to be tested were dissolved in DMSO and diluted with DMSO into a series of concentration gradients. 5000 U937 cells/well were seeded in a 384-well white plate. Compounds of corresponding concentrations were added to each well and mixed evenly with the cells. At the same time, human TNF-a and Q-VD-Oph were added to induce programmed necrosis of the cells. The cells were placed at 37° C., 5% CO2 incubator for 48 hours. CellTiter-Glo reagent was used for detection, and the chemiluminescence reading was detected using a microplate reader after sufficient lysis reaction. The test results were calculated using the formula SR (%)=(RLU compound−RLU blank)/(RLU high control−RLU blank)×100%. The survival rate and the final concentration of the corresponding compound were drawn into a curve and fitted using four parameters. Inhibitory IC50 on TNF-α-induced cell necrosis of the compounds were calculated.

Row | IC50 [2] | Structure (SMILES) | IC50 [1] | IC50 [3]
1 | 89 nM | C[C@H](C(F)F)N1CCc2c(nn(Cc3c(F)cccc3F)c2Cl)C1=O (single isomer, unassigned) [Compound Z9-2] | 450 nM | 42.8 nM
2 | – | CC(C(F)F)N1CCc2c(nn(Cc3c(F)cccc3F)c2Cl)C1=O (stereo not shown) [Compound Z9, 3-chloro-2-(2,6-difluorobenzyl)-6-(1,1-difluoropropan-2-yl)-2,4,5,6-tetrahydro-7H-pyrazolo[3,4-c]pyridin-7-one] | 600 nM | 57.1 nM
3 | – | C[C@@H](C(F)F)N1CCc2c(nn(Cc3c(F)cccc3F)c2Br)C1=O (single isomer, unassigned) [Compound Z24-2] | 348 nM | 29.7 nM
